Measured values reported in patent US20050171030A1, “Relieving symptoms of erectile dysfunction and attaining sexual wellness and health of the sexual vascular system with proanthocyanidins” (priority 2000, published 2005).
“And” between values parts separate entries of the source, which are not always exact repeats. Equal entries are not always repeated.

Tests used:
[1] = test system: men with erectile dysfunction; experiment: Clinical study of arginine aspartate (Sargenor) alone and with Pycnogenol in 40 men with erectile dysfunction; assay type: in vivo, human
Description: A clinical study was conducted on forty participants who had erectile dysfunction. The study involved the effect of taking arginine asparatate, which is a salt of arginine with aspartic acid. One gram of arginine asparatate contains 566.85 mg of arginine.
The participants were grouped according to their variant of disturbed erection. The variants are in five categories: weakened, delayed, hesitating, losing and normal. The “weakened” variant signifies that the penis increases in size and becomes hard to a certain extent, but it is not enough to enter the vagina. The “delayed” variant signifies that if it is possible for the penis to become hard enough to enter the vagina, but such may require additional time. The “hesitating” variant signifies that before or after sexual contact, the erection is unstable and thus makes the sexual intercourse more difficult. The “losing” variant signifies that during the love game there is good erection, but such is lost when trying to make contact or during intercourse. The “normal” variant signifies that no appreciable disturbed erection was present.
The clinical study was over three months. During the first month, only 3 doses of 1000 milligrams (mg) of arginine asparatate (Sargenor) were administered daily to each participant. By the end of the first month, there was improvement in erectile dysfunction in about 10% of the participants. During the second month, 2 doses of 40 mg of Pycnogenol® food supplement were administered daily to each participant, together with the 3 doses of 1000 mg of arginine asparatate. By the end of the second month, there was a statistically significant improvement of erectile dysfunction in 80% of the participants. During the third month, 3 doses of 40 mg of Pycnogenol® food supplement were administered daily to each participant, together with the 3 doses of 1000 mg of arginine asparatate. By the end of the third month, there was further improvement of the erectile dysfunction condition even for some of the participants who had not shown improvement during the second month. Overall, there was a statistically significant improvement of erectile dysfunction in 92% of the treated participants.
The following statistical analysis of the results from the clinical study calculate the probability of whether the observed differences between two treatments are statistically significant at a certain level.
Dr. Romil Stanislavov and V. Nikolova of The Seminological Laboratory SBALAG in Maichin Dom, Sofia, Bulgaria investigated the possibility to overcome erectile dysfunction by increasing the amounts of endogenous NO. For this purpose, Pycnogenol® pine bark extract as it is known to stimulate nitric oxide synthase was orally administered together with L-arginine as substrate for this enzyme.
The study included 40 men aged 25 to 45 years (mean age 36.6.+−.5.3 years) with confirmed functional erectile dysfunction of at least 3 months duration, who were unable to achieve adequate erection and rigidity sufficient for vaginal penetration and completion of successful intercourse after spontaneous sexual stimulation. All patients were required to be involved in a stable, monogamous relationship with a female partner for more than 6 months.
Exclusion criteria were severe cardiovascular diseases, hypertension, renal failure, hepatic insufficiency, endocrine abnormalities, and psychiatric disorders. Patients were also excluded if they were currently or recently treated for erectile dysfunction by vasoactive medications, surgery, or any mechanical device. Concomitant use of other therapies for erectile dysfunction were not allowed. The study was approved by the Ethics Committee of Medical Research Board of the University Clinic of Sofia, Bulgaria and written consent was obtained from each participant. […]

[2] = test system: men with testosterone levels below normal; experiment: Example 2: 12-month treatment of 50 men with testosterone levels below normal and secondary infertility; Global efficacy questionnaire on erection; assay type: in vivo, human; settings: after 1 month treatment with L-arginine (only)
Description: In the department of Dr. Stanislavov and Dr. Nikolova 50 men aged between 45-60 with testosterone levels below normal were treated daily with • Pycnogenol® 120 mg • L-arginine (Sargenor) 1.71 g • Testosterone undecanoate 120 mg • over a period of 12 months because of secondary infertility.

postmenopausal women = settings: taken together with supplemental hormones; 202 postmenopausal women; cited from earlier work
[3] = after 1 month, arginine aspartate (Sargenor) 3 x 1000 mg daily only, 40 patients

| Molecule | Responders (restored erectile function), number of patients ([1]; Sargenor only, 1. month) | Responders (restored erectile function), percent of patients ([1]; Sargenor only, 1. month) | Normal erection, D (percent distribution) [1, 3] | Normal erection, n (number of patients) [1, 3] | Variant of disturbed erection: Delayed, D (percent distribution) [1, 3] | Variant of disturbed erection: Delayed, n (number of patients) [1, 3] | Variant of disturbed erection: Hesitating, D (percent distribution) [1, 3] | Variant of disturbed erection: Hesitating, n (number of patients) [1, 3] | Variant of disturbed erection: Losing, D (percent distribution) [1, 3] | Variant of disturbed erection: Losing, n (number of patients) [1, 3] | Variant of disturbed erection: Weakened, D (percent distribution) [1, 3] | Variant of disturbed erection: Weakened, n (number of patients) [1, 3] | Participants with improvement in erectile dysfunction ([1]; end of first month, 3 doses of 1000 mg arginine asparatate daily only) | Mean time of duration (of the erection) ([1]; mean (SEM), responders, Sargenor only, 1. month) | Mean time until response emerges ([1]; mean (SEM), responders, spontaneous sexual stimulation, Sargenor only, 1. month) | Assessment of erection: Disturbed (weakened, delayed, hesitating, loosing), number of patients [2] | Assessment of erection: Disturbed (weakened, delayed, hesitating, loosing), percent of patients [2] | Assessment of erection: Normal, number of patients [2] | Assessment of erection: Normal, percent of patients [2] | Women reporting improved genital sensations (postmenopausal women) |
| --- | --- | --- | --- | --- | --- | --- | --- | --- | --- | --- | --- | --- | --- | --- | --- | --- | --- | --- | --- | --- |
| L-arginine aspartate [Sargenor] | 2 | 5% | 5% | 2 | 25% | 10 | 10% | 4 | 10% | 4 | 50% | 20 | about 10% | 2 ± 1 min | 10 min and 10 ± 2 min | 42 | 84% | 8 | 16% |  |
| CCCc1nn(C)c2c(=O)[nH]c(-c3cc(S(=O)(=O)N4CCN(C)CC4)ccc3OCC)nc12 [sildenafil] |  |  |  |  |  |  |  |  |  |  |  |  |  |  |  |  |  |  |  | 57% |
